Our source for the IC50 values is patent US8962596B2 (Array BioPharma Inc., priority 2010, dated 2015).

The term IC50 denotes the point on the concentration scale where inhibition reaches its midpoint. A low value points to inhibition by little substance.

Holding throughout (type): biochemical
Assay [1] has as its target T1, Human Tyk2 kinase domain (Homo sapiens, UniProt P29597).
T1 construct: comprising amino acids 886 to 1187 with 10 additional histidine residues; 10xHis (histidine tag) (C, cleaved yes); made in house
T1 sequence (P29597 886-1187): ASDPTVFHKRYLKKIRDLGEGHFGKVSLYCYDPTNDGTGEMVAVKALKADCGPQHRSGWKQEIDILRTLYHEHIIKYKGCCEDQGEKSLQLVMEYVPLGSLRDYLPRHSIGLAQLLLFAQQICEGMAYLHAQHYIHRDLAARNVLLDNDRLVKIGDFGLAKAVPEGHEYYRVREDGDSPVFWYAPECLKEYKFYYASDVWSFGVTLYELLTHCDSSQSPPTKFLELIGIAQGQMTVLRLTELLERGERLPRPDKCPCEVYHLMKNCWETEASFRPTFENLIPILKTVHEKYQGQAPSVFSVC
The assay is described as follows: Tyk2 Inhibition Assay (Omnia kinase fluorescence peptide substrate assay). As to conditions: averaged IC50 ranges; assay of Example A; 10 μM (Km app) or 1 mM ATP, 2 nM Tyk2. The gist of the method:
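2 nM His-tag-cleaved kinase domain (aa 886–1187) with 8 μM Omnia Y12 peptide, 10 μM (Km app) or 1 mM ATP, pH 7.4 HEPES/10 mM MgCl2, 2% DMSO. Fluorescence (ex 360/em 485 nm) every 50 s for 45 min; IC50 from 4-parameter fit of POC, top dose 10 μM.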

The target of assay [2] is T2, JAK2 (Homo sapiens, UniProt O60674).
T2 construct: purchased Invitrogen Corporation, Carlsbad, Calif; PV4288
T2 sequence (O60674 whole entry): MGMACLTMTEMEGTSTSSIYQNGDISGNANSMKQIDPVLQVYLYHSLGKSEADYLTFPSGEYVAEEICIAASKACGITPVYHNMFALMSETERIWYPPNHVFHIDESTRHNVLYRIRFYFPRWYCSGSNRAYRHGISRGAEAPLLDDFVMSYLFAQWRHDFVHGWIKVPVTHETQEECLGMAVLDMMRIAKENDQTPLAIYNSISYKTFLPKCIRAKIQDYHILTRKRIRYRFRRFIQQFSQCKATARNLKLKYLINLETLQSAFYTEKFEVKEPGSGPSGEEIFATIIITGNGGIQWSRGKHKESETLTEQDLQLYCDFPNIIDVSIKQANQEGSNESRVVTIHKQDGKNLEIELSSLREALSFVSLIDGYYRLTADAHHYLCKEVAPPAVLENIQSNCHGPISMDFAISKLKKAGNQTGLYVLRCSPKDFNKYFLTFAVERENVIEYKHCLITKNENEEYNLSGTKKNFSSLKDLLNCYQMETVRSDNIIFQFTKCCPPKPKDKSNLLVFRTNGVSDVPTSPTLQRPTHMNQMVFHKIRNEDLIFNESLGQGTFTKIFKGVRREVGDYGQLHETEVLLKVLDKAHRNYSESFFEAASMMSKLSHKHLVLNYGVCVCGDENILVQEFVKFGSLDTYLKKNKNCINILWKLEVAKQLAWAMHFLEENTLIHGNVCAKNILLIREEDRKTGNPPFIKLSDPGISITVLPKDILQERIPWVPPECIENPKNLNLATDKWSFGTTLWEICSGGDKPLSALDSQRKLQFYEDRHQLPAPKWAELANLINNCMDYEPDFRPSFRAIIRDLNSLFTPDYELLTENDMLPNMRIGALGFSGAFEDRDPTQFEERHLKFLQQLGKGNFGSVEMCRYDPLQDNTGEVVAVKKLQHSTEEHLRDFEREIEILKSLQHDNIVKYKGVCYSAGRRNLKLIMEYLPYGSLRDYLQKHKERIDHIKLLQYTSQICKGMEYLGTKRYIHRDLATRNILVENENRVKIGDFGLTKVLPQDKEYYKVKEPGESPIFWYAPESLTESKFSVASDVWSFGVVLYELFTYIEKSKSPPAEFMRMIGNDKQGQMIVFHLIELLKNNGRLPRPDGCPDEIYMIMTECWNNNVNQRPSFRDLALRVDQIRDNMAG
The assay is described as follows: JAK2 Inhibition Assay (Omnia kinase fluorescence peptide substrate assay). As to conditions: averaged IC50 ranges; assay of Example C; 25 μM (Km app) or 1 mM ATP, 5 nM JAK2. The gist of the method:
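A 10-point, 3-fold compound series (top 10 μM, 2% DMSO) was tested against 5 nM JAK2 with 10 μM Omnia Y7 substrate and either 1 mM or 25 μM (Km app) ATP. Buffer: pH 7.4 HEPES, MgCl2, Triton X-100, DTT. Sox fluorescence was monitored kinetically for 45 min; IC50 is the concentration giving 50 POC on a 4-parameter fit.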

For assay [3], the target named is T3, JAK3 (Homo sapiens, UniProt P52333).
T3 construct: purchased Invitrogen Corporation, Carlsbad, Calif; PV4080
T3 sequence (P52333 1-1124): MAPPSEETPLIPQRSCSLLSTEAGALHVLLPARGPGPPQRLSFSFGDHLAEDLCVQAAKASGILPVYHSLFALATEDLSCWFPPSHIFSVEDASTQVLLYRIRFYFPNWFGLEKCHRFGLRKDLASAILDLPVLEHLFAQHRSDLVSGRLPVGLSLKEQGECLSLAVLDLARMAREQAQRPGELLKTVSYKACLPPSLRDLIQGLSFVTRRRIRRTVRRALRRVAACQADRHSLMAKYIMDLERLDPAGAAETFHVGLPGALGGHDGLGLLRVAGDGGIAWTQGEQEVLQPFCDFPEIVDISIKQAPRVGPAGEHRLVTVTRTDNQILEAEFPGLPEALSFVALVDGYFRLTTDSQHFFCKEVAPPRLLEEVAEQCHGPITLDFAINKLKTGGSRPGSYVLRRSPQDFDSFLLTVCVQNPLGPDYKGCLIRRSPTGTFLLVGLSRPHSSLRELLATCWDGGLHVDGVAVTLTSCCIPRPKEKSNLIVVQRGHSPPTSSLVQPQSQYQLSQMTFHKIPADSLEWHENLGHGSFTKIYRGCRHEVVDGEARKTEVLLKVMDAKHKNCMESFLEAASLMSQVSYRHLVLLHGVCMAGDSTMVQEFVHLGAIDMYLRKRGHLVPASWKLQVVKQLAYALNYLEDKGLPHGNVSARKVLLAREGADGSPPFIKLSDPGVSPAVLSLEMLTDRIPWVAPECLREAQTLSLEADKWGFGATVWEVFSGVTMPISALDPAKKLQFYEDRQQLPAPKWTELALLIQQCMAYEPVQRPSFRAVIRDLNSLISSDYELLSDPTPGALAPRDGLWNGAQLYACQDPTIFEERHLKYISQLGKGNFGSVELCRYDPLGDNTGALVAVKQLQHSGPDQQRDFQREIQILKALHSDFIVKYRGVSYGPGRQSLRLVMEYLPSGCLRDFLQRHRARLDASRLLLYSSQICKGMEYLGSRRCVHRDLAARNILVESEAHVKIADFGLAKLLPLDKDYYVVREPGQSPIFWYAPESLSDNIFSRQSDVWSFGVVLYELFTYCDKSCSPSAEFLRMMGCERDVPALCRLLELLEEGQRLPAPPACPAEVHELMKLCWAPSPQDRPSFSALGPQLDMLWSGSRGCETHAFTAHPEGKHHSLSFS
The assay is described as follows: JAK3 Inhibition Assay (Omnia kinase fluorescence peptide substrate assay). Conditions: averaged IC50 ranges; assay of Example D; 10 μM (Km app) or 1 mM ATP, 2.5 nM JAK3. The gist of the method:
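Kinase at 2.5 nM with 10 µM Omnia Y7 peptide and 10 µM (Km app) or 1 mM ATP in 25 mM HEPES pH 7.4, 10 mM MgCl2, 1 mM DTT, 0.01% Triton X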

Assay [4] addresses T4, JAK1 (Homo sapiens, UniProt P23458).
T4 construct: purchased Invitrogen Corporation, Carlsbad, Calif; PV4775
The assay is described as follows: JAK1 Inhibition Assay (Omnia kinase fluorescence peptide substrate assay). Conditions: averaged IC50 ranges; assay of Example B; 40 μM (Km app) or 1 mM ATP, 15 nM JAK1.

Counter-ions that a name gives are not always drawn.

T4 sequence (P23458 whole entry): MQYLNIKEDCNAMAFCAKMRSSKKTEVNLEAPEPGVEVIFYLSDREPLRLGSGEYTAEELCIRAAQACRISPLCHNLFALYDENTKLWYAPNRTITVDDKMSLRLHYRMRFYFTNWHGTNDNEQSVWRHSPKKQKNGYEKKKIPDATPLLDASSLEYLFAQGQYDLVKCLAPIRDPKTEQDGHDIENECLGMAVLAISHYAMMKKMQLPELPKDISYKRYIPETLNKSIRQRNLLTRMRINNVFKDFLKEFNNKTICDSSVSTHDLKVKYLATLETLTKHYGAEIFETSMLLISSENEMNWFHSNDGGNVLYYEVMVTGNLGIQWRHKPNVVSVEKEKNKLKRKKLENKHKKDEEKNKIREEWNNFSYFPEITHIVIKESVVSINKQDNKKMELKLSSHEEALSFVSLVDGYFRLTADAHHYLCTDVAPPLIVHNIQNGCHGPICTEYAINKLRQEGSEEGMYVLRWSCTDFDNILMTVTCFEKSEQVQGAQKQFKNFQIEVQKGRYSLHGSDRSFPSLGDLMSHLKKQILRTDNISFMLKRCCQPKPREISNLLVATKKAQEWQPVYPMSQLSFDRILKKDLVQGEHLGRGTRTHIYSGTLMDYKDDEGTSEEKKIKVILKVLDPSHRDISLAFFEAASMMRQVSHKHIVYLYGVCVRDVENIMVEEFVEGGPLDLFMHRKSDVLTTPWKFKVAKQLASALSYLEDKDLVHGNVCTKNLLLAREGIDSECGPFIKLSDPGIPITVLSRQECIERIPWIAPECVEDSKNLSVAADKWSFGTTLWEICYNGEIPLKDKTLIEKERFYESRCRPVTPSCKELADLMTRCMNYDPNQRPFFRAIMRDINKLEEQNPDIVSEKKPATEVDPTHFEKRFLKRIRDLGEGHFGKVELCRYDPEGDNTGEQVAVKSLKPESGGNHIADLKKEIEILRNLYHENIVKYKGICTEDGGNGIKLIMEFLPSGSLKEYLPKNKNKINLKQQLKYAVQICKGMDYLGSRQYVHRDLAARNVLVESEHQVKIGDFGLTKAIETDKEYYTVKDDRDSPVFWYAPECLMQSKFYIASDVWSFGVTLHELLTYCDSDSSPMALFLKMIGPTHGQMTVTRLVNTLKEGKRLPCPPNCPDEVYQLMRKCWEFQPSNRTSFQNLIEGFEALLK

In the case of `CN1CCc2ccc(-c3cc4nccn4c(-c4cnn(C(CC#N)C5CC5)c4)n3)cc2C1` (centres unmarked) [Example 55, 3-Cyclopropyl-3-(4-(7-(2-methyl-1,2,3,4-tetrahydroisoquinolin-7-yl)imidazo[1,2-c]pyrimidin-5-yl)-1H-pyrazol-1-yl)propanenitrile], the IC50 in assay [1] lay within 0.01 to 0.1 µM; in assay [2], 0.01 to 0.1 µM; in assay [3], 0.1 to 1 µM; in assay [4] it was 0.01 to 0.1 µM.

For `N#CCC(C1CC1)n1cc(-c2nc(-c3cnc4n3CCNC4)cc3nccn23)cn1` (centres unmarked) [Example 56, 3-Cyclopropyl-3-(4-(7-(5,6,7,8-tetrahydroimidazo[1,2-a]pyrazin-3-yl)imidazo[1,2-c]pyrimidin-5-yl)-1H-pyrazol-1-yl)propanenitrile], the IC50 in assay [1] is 0.1 to 1 µM; in assay [2], 0.1 to 1 µM; in assay [3], more than 1 µM; in assay [4] it was more than 1 µM.

Turning to `CN1CCn2c(-c3cc4nccn4c(-c4cnn(C(CC#N)C5CC5)c4)n3)cnc2C1` (centres unmarked) [Example 57, 3-cyclopropyl-3-(4-(7-(7-methyl-5,6,7,8-tetrahydroimidazo[1,2-a]pyrazin-3-yl)imidazo[1,2-c]pyrimidin-5-yl)-1H-pyrazol-1-yl)propanenitrile], the IC50 in assay [1] is 0.01 to 0.1 µM; in assay [2] it was 0.1 to 1 µM; in assay [3], more than 1 µM; in assay [4], 0.1 to 1 µM.

For `N#CCC(C1CC1)n1cc(-c2nc(-c3ccc(N4CC5CCC(C4)O5)cc3)cc3nccn23)cn1` (centres unmarked) [Example 58, 3-(4-(7-(4-(8-Oxa-3-azabicyclo[3.2.1]octan-3-yl)phenyl)imidazo[1,2-c]pyrimidin-5-yl)-1H-pyrazol-1-yl)-3-cyclopropylpropanenitrile], the IC50 in assay [1] is less than 0.01 µM; in assay [2], 0.01 to 0.1 µM; in assay [3], 0.1 to 1 µM; in assay [4], 0.01 to 0.1 µM.

Turning to `CN1CCN(c2ccc(-c3cc4nccn4c(-c4cnn(C(CC#N)C5CC5)c4)n3)cc2)CC1` (centres unmarked) [Example 59, 3-Cyclopropyl-3-(4-(7-(4-(4-methylpiperazin-1-yl)phenyl)imidazo[1,2-c]pyrimidin-5-yl)-1H-pyrazol-1-yl)propanenitrile], the IC50 in assay [1] was less than 0.01 µM; in assay [2], 0.01 to 0.1 µM; in assay [3] it was 0.1 to 1 µM; in assay [4], 0.01 to 0.1 µM.

For `Cn1cc(-c2ccc(-c3cc4nccn4c(-c4cnn(C(CC#N)C5CC5)c4)n3)cc2)cn1` (centres unmarked) [Example 60, 3-Cyclopropyl-3 (4 (7 (4 (1 methyl-1H-pyrazol-4-yl)phenyl)imidazo[1,2-c]pyrimidin-5-yl)-1H-pyrazol-1-yl)propanenitrile], the IC50 in assay [1] was less than 0.01 µM; in assay [2], 0.01 to 0.1 µM; in assay [3], 0.1 to 1 µM; in assay [4] it was 0.01 to 0.1 µM.

For `Cn1cc(-c2cc3nccn3c(-c3cnn(C4(CC#N)CN(C(=O)OC(C)(C)C)C4)c3)n2)cn1` [Example 61, Tert-butyl 3-(cyanomethyl)-3-(4-(7-(1-methyl-1H-pyrazol-4-yl)imidazo[1,2-c]pyrimidin-5-yl)-1H-pyrazol-1-yl)azetidine-1-carboxylate], the IC50 in assay [1] was 0.1 to 1 µM; in assay [2] it was 0.1 to 1 µM; in assay [3], more than 1 µM; in assay [4], more than 1 µM.

Take `Cn1cc(-c2cc3nccn3c(-c3cnn(C4(CC#N)CNC4)c3)n2)cn1` [Example 62, 2-(3-(4-(7-(1-Methyl-1H-pyrazol-4-yl)imidazo[1,2-c]pyrimidin-5-yl)-1H-pyrazol-1-yl)azetidin-3-yl)acetonitrile hydrochloride]: the IC50 in assay [1] is 0.1 to 1 µM; in assay [2] it was more than 1 µM; in assay [3], more than 1 µM; in assay [4], more than 1 µM.

As to `CC(=O)N1CC(CC#N)(n2cc(-c3nc(-c4cnn(C)c4)cc4nccn34)cn2)C1` [Example 63, 2-(1-Acetyl-3-(4-(7-(1-methyl-1H-pyrazol-4-yl)imidazo[1,2-c]pyrimidin-5-yl)-1H-pyrazol-1-yl)azetidin-3-yl)acetonitrile], the IC50 in assay [1] is 0.1 to 1 µM; in assay [2], more than 1 µM; in assay [3], more than 1 µM; in assay [4], more than 1 µM.

Turning to `Cn1cc(-c2cc3nccn3c(-c3cnn(C4(CC#N)CN(C(=O)CC(F)(F)F)C4)c3)n2)cn1` [Example 64, 2-(3-(4-(7-(1-Methyl-1H-pyrazol-4-yl)imidazo[1,2-c]pyrimidin-5-yl)-1H-pyrazol-1-yl)-1-(3,3,3-trifluoropropanoyl)azetidin-3-yl)acetonitrile], the IC50 in assay [1] is 0.01 to 0.1 µM; in assay [2], 0.01 to 0.1 µM; in assay [3], 0.1 to 1 µM; in assay [4], 0.1 to 1 µM.

On to `Cn1cc(-c2cc3nccn3c(-c3cnn(C4(CC#N)CN(C(=O)C5(C(F)(F)F)CC5)C4)c3)n2)cn1` [Example 65, 2-(3-(4-(7-(1-Methyl-1H-pyrazol-4-yl)imidazo[1,2-c]pyrimidin-5-yl)-1H-pyrazol-1-yl)-1-(1-(trifluoromethyl)cyclopropanecarbonyl)azetidin-3-yl)acetonitrile], for which the IC50 in assay [1] lay in the range of 0.01 to 0.1 µM; in assay [2] it was 0.01 to 0.1 µM; in assay [3] it was 0.1 to 1 µM; in assay [4] it was 0.01 to 0.1 µM.

As to `Cn1cc(-c2cc3nccn3c(-c3cnn(C4(CC#N)CN(C5CC5)C4)c3)n2)cn1` [Example 66, 2-(1-Cyclopropyl-3-(4-(7-(1-methyl-1H-pyrazol-4-yl)imidazo[1,2-c]pyrimidin-5-yl)-1H-pyrazol-1-yl)azetidin-3-yl)acetonitrile], the IC50 in assay [1] was 0.01 to 0.1 µM; in assay [2] it was 0.1 to 1 µM; in assay [3], more than 1 µM; in assay [4], 0.1 to 1 µM.

Regarding `Cn1cc(-c2cc3nccn3c(-c3cnn(C4(CC#N)CN(C5COC5)C4)c3)n2)cn1` [Example 67, 2-(3-(4-(7-(1-Methyl-1H-pyrazol-4-yl)imidazo[1,2-c]pyrimidin-5-yl)-1H-pyrazol-1-yl)-1-(oxetan-3-yl)azetidin-3-yl)acetonitrile], the IC50 in assay [1] was 0.01 to 0.1 µM; in assay [2], 0.1 to 1 µM; in assay [3], more than 1 µM; in assay [4] it was more than 1 µM.

Turning to `Cn1cc(-c2cc3nccn3c(-c3cnn(C4(CC#N)CN(c5ncccn5)C4)c3)n2)cn1` [Example 68, 2-(3-(4-(7-(1-Methyl-1H-pyrazol-4-yl)imidazo[1,2-c]pyrimidin-5-yl)-1H-pyrazol-1-yl)-1-(pyrimidin-2-yl)azetidin-3-yl)acetonitrile], the IC50 was 0.1 to 1 µM in assay [1], more than 1 µM in assay [2], more than 1 µM in assay [3] and more than 1 µM in assay [4].
